Laboratory results as given in patent publication US6177438A, “Morphinan derivatives and pharmaceutical use thereof” (priority 1993, dated 2001).
Counter-ions that a name gives are not always drawn.

The compounds below were run on acetic acid-induced writhing in ddy mice (assay: animal or person). Conditions: Mus musculus, sc, s.c. 15 minutes before acetic acid, read-out: ED50.
Type: in vivo, 5 week old ddy mice
Method: 5 week old ddy mice were used in this test. After intraperitoneal administration of 0.1 ml of 0.6% aqueous acetic acid per 10 g of body weight, the number of writhing reactions that occurred in 10 minutes starting 10 minutes after administration was evaluated for the indicator. The test drug was administered subcutaneously into the backs of the animals 15 minutes before administration of acetic acid.
COc1ccc2c3c1O[C@H]1[C@H](N(C)C(=O)/C=C/c4ccoc4)CC[C@@]4(O)[C@@H](C2)N(CC2CC2)CC[C@]314 [Compound 217, 17-cyclopropylmethyl-4,5α-epoxy-14β-hydroxy-3-methoxy-6β-[N-methyl-trans-3-(3-furan)acrylamido]morphinan hydrochloride] was tested, and the ED50 was 0.018 mg/kg.
Compound CN(C(=O)/C=C/c1ccccc1C(F)(F)F)[C@@H]1CC[C@@]2(O)[C@H]3Cc4ccc(O)c5c4[C@@]2(CCN3CC2CC2)[C@H]1O5 [Compound 72, 17-cyclopropylmethyl-3,14β-dihydroxy-4,5α-epoxy-6β-(N-methyl-2-trifluoromethylcinnamamido)morphinan.cndot.hydrochloride] has an ED50 of 0.18 mg/kg.
Work on CN(C(=O)Cc1cccc(N)c1)[C@H]1CC[C@@]2(O)[C@H]3Cc4ccc(O)c5c4[C@@]2(CCN3CC2CC2)[C@H]1O5 [Compound 138, 17-Cyclopropylmethyl-3,14β-dihydroxy-4,5α-epoxy-6α-(N-methyl-3-aminophenylacetamido)morphinan.cndot.1.1 tartrate] yielded an ED50 of 0.014 mg/kg.
In the case of CN(C(=O)CCC1CCCC1)[C@@H]1CC[C@@]2(O)[C@H]3Cc4ccc(O)c5c4[C@@]2(CCN3CC2CC2)[C@H]1O5 [Compound 64, 17-cyclopropylmethyl-3,14β-dihydroxy-4,5α-epoxy-6β-(N-methyl-3-cyclopentylpropionamido)morphinan.cndot.tartrate], the ED50 is reported as 0.097 mg/kg.
For CN(C(=O)COc1c(Cl)cc(Cl)cc1Cl)[C@@H]1CC[C@@]2(O)[C@H]3Cc4ccc(O)c5c4[C@@]2(CCN3CC2CC2)[C@H]1O5.Cl [Compound 199, 17-cyclopropylmethyl-3,14β-dihydroxy-4,5α-epoxy-6β-(N-methyl-2,4,6-trichlorophenoxyacetamido)morphinan hydrochloride], the ED50 was 0.017 mg/kg.
Compound COc1ccc2c3c1O[C@H]1[C@@H](N(C)C(=O)Cc4ccc(Cl)c(Cl)c4)CC[C@@]4(O)[C@@H](C2)N(CC2CC2)CC[C@]314 [Compound 142, 17-cyclopropylmethyl-4,5α-epoxy-14β-hydroxy-3-methoxy-6α-(N-methyl-3,4-dichlorophenylacetamido)morphinan.cndot.tartrate] has an ED50 of 0.78 mg/kg.
Cc1ccc(C#CC(=O)N(C)[C@H]2CC[C@@]3(O)[C@H]4Cc5ccc(O)c6c5[C@@]3(CCN4CC3CC3)[C@H]2O6)cc1.Cl [Compound 183, 17-cyclopropylmethyl-3,14β-dihydroxy-4,5α-epoxy-6α-[N-methyl-3-(4-methylphenyl)propiolamido]morphinan hydrochloride] gave an ED50 of 0.013 mg/kg.
CN(C(=O)/C=C/c1ccsc1)[C@@H]1CC[C@@]2(O)[C@H]3Cc4ccc(O)c5c4[C@@]2(CCN3CC2CC2)[C@H]1O5 [Compound 71, 17-cyclopropylmethyl-3,14β-dihydroxy-4,5α-epoxy-6β-[N-methyl-trans-3-(3-thienyl)acrylamido]morphinan.cndot.methanesulfonate] was tested, and the ED50 was 0.0042 mg/kg.
With CN([C@H]1CC[C@@]2(O)[C@H]3Cc4ccc(O)c5c4[C@@]2(CCN3CC2CC2)[C@H]1O5)S(=O)(=O)Cc1ccc(Cl)c(Cl)c1 [Compound 128, 17-cyclopropylmethyl-4,5α-epoxy-3,14β-dihydroxy-6α-(N-methyl-3,4-dichlorophenylmethanesulfonamido)morphinan.cndot.tartrate] the ED50 was 0.63 mg/kg.
Compound CO[C@H](C(=O)N(C)[C@H]1CC[C@@]2(O)[C@H]3Cc4ccc(O)c5c4[C@@]2(CCN3CC2CC2)[C@H]1O5)c1ccccc1 [Compound 31, 17-cyclopropylmethyl-3,14β-dihydroxy-4,5α-epoxy-6α-[(S)-N-methylmethoxyphenylacetamido]morphinan.cndot.hydrochloride] has an ED50 of 0.75 mg/kg.
With CN(C(=O)OCc1ccccc1)[C@H]1CC[C@@]2(O)[C@H]3Cc4cccc5c4[C@@]2(CCN3CC2CC2)[C@H]1O5 [Compound 74, 17-cyclopropylmethyl-14β-hydroxy-4,5α-epoxy-6α-(N-methylbenzyloxycarbamido)morphinan.cndot.phosphate] the ED50 was 0.78 mg/kg.
CN(C(=S)NCc1ccccc1)[C@@H]1CC[C@@]2(O)[C@H]3Cc4ccc(O)c5c4[C@@]2(CCN3CC2CC2)[C@H]1O5 [Compound 134, 17-cyclopropylmethyl-3,14β-dihydroxy-4,5α-epoxy-6β-(N-methyl-N'-benzylthioureido)morphinan.cndot.tartrate] showed an ED50 of 0.15 mg/kg.
In the case of CN(C(=O)CC1CCCCC1)[C@H]1CC[C@@]2(O)[C@H]3Cc4ccc(O)c5c4[C@@]2(CCN3CC2CC2)[C@H]1O5 [Compound 85], the ED50 is reported as 0.113 mg/kg.
In the case of C/C(=C\C(=O)N(C)[C@@H]1CC[C@@]2(O)[C@H]3Cc4ccc(O)c5c4[C@@]2(CCN3CC2CC2)[C@H]1O5)c1ccccc1 [Compound 162, 17-cyclopropylmethyl-3,14β-dihydroxy-4,5α-epoxy-6β-(N-methyl-γ-methylcinnamamido)morphinan tartrate], the ED50 is reported as 0.018 mg/kg.
Compound CN(C(=O)Cc1ccccc1)[C@@H]1CC[C@@]2(O)[C@H]3Cc4ccc(O)c5c4[C@@]2(CCN3CC2CC2)[C@H]1O5 [Compound 55, 17-cyclopropylmethyl-3,14β-dihydroxy-4,5α-epoxy-6β-(N-methylphenylacetamido)morphinan.cndot.hydrochloride] has an ED50 of 0.98 mg/kg.
Work on CN(C(=O)CCc1cccnc1)[C@H]1CC[C@@]2(O)[C@H]3Cc4ccc(O)c5c4[C@@]2(CCN3CC2CC2)[C@H]1O5 [Compound 41, 17-cyclopropylmethyl-3,14β-dihydroxy-4,5α-epoxy-6α-[N-methyl-3-(3-pyridyl)propionamido]morphinan.cndot.tartrate] yielded an ED50 of 0.39 mg/kg.
For CN(C(=O)/C=C\c1ccoc1)[C@@H]1CC[C@@]2(O)[C@H]3Cc4ccc(O)c5c4[C@@]2(CCN3CC2CC2)[C@H]1O5.O=C(O)C(O)C(O)C(=O)O (relative stereo) [Compound 174, 17-cyclopropylmethyl-3,14β-dihydroxy-4,5α-epoxy-6β-[N-methyl-cis-3-(3-furyl)acrylamido]morphinan tartrate], the ED50 was 0.16 mg/kg.
CN(C(=O)Cc1ccc([N+](=O)[O-])cc1)[C@H]1CC[C@@]2(O)[C@H]3Cc4ccc(O)c5c4[C@@]2(CCN3CC2CC2)[C@H]1O5 [Compound 87, 17-cyclopropylmethyl-3,14β-dihydroxy-4,5α-epoxy-6α-(N-methyl-4-nitrophenylacetamido)morphinan.cndot.hydrochloride] was tested, and the ED50 was 0.027 mg/kg.
Compound CN(C(=O)C#Cc1ccoc1)[C@@H]1CC[C@@]2(O)[C@H]3Cc4ccc(O)c5c4[C@@]2(CCN3CC2CC2)[C@H]1O5.O=C(O)C(O)C(O)C(=O)O [Compound 177, 17-cyclopropylmethyl-3,14β-dihydroxy-4,5α-epoxy-6β-[N-methyl-(3-furyl)propiolamido]morphinan tartrate] has an ED50 of 0.0096 mg/kg.

Same assay, conditions: s.c. 15 minutes before acetic acid
Cc1ccc(/C=C/C(=O)N(C)[C@@H]2CC[C@@]3(O)[C@H]4Cc5ccc(O)c6c5[C@@]3(CCN4CC3CC3)[C@H]2O6)s1.O=C(O)C(O)C(O)C(=O)O (relative stereo) [Compound 160, 17-cyclopropylmethyl-3,14β-dihydroxy-4,5α-epoxy-6β-[N-methyl-trans-3-(5-methyl-2-thienyl)acrylamido]morphinan tartrate] was tested, and the ED50 was 0.0027 mg/kg.
In the case of Cc1ccc(C#CC(=O)N(C)[C@@H]2CC[C@@]3(O)[C@H]4Cc5ccc(O)c6c5[C@@]3(CCN4CC3CC3)[C@H]2O6)cc1.Cl [Compound 171, 17-cyclopropylmethyl-3,14β-dihydroxy-4,5α-epoxy-6β-[N-methyl-3-(4-methylphenyl)propiolamido]morphinan hydrochloride], the ED50 is reported as 0.038 mg/kg.
